Tests used:
ROS = experiment: Cellular ROS production in islets (DCFDA assay); format: cell-based, mice
Protocol: Measurement of Cellular ROS Production. Islets were incubated with KR buffer containing 0.01% (w/v) bovine serum albumin (BSA), 16 mM HEPES, and 2.8 mM glucose for 60 min at 37° C. ROS measurements were measured by using the DCFDA Cellular ROS Detection Assay Kit (Abcam/Mitosciences) in a 96-well dark microplate in accordance with the manufacturer's guidelines. Briefly, 30 islets were seeded into each well. On the day of the experiment, the islets were washed with 1×phosphate buffered saline and stained with 20 μM DCFH-DA in the dark for 30 min at 37° C. After incubation, DCFH-DA was removed, and the islets were washed with 1×buffer solution. Islets were seeded in a 96-well plate followed by high glucose alone or in combination with CPX glucose treatment and iron citrate alone or in combination with CPX treatment. Samples were analyzed using a Varioskan Flash micro-plate reader (Thermo-Scientific) with excitation wavelength at 485 nm and an emission wavelength at 535 nm. Tert-Butyl hydroperoxide (TBHP) was used as positive control.

p21 = p21 expression in the pancreas of mice that received CPX (immunoblot); format: in vivo; conditions: wild type mice, oral CPX 0-25 mg/kg daily for 5 days; effect from as low as 5 mg/kg (FIG. 4)
Protocol: Western Blotting. The mouse islets were treated with CPX 20 μM for 24 h and lysed in RIPA buffer [50 mM Tris, pH 7.2; 150 mM NaCl; 1% sodium deoxycholate; 0.1% SDS; 1% Triton-X 100; 10 mM NaF; 1 mM Na3VO4; protease inhibitor cocktail (1:1000, Sigma, St. Louis, Mo.)] and were subjected to immunoblot analysis by standard methods. Proteins were resolved on a 10% SDS-PAGE and transferred to a nitrocellulose membrane (Bio-Rad, Hercules, Calif.). […] After incubation with enhanced chemiluminescence reagents (Santa Cruz biotechnology Inc.), membranes were analyzed using an Image J software for Windows. To determine if CPX treatment induces p21 levels in the pancreas, mice received orally CPX at 0-25 mg/kg daily for 5 days and the levels of p21 were assessed. […]

p21-deficient mice = experiment: Fasting glucose in diet-induced diabetic p21-deficient mice; format: in vivo; conditions: CPX as in wt controls, delayed response (FIG. 5A)
Excerpt: In Vivo Analysis of Anti-Diabetic Effect of CPX. Mice were randomly grouped. A group of C57BI/6 mice 4-5 weeks old, were fed with either a solution of 10% sucrose and a diet containing 40% kcal as a high-fat diet (HFD; Open Source Diets (New Brunswick, N.J., USA) D12451, 40% calories/fat with free access to (10%) sweetened water (sucrose) or a control chow diet containing 10% of kcal as fat (low-fat diet) and drinking water with no added sucrose (control). Mice with a glucose concentration exceeding 180 mg/dL were considered diabetic, after 2 consecutive glucose measurements. The blood glucose levels were measured using an Accu-Check blood glucose monitor (Roche, Indianapolis, Ind., USA) using blood sample collected from the tail vein. Diabetic mice were treated with either treated daily for 20 days by oral gavages with CPX (25 mg/kg) prepared in a solution (4% ethanol, 5.2% Tween 80, and 5.2% PEG 400) or vehicle control. […]
Glucose Level Determination and Intraperitoneal Insulin Tolerance Test. […] Glucose levels of mice were measured by an Accu-Chek Active meter (ROCHE) with blood sample obtained from the tail. […] For insulin resistance test, mice were injected intraperitoneally at a dose of 0.75 units/kg with human insulin (0.75 U/kg body weight; Sigma) at different time points as indicated, as for glucose tolerance after insulin injection and blood glucose was measured as described. […]

pancreatic islets = experiment: Pancreatic islet numbers by histology (H&E); format: in vivo; conditions: diabetic mice treated with CPX (FIG. 8)
Excerpt: In Vivo Analysis of Anti-Diabetic Effect of CPX. Mice were randomly grouped. A group of C57BI/6 mice 4-5 weeks old, were fed with either a solution of 10% sucrose and a diet containing 40% kcal as a high-fat diet (HFD; Open Source Diets (New Brunswick, N.J., USA) D12451, 40% calories/fat with free access to (10%) sweetened water (sucrose) or a control chow diet containing 10% of kcal as fat (low-fat diet) and drinking water with no added sucrose (control). Mice with a glucose concentration exceeding 180 mg/dL were considered diabetic, after 2 consecutive glucose measurements. The blood glucose levels were measured using an Accu-Check blood glucose monitor (Roche, Indianapolis, Ind., USA) using blood sample collected from the tail vein. Diabetic mice were treated with either treated daily for 20 days by oral gavages with CPX (25 mg/kg) prepared in a solution (4% ethanol, 5.2% Tween 80, and 5.2% PEG 400) or vehicle control. Pancreata were preserved in 10% buffered formalin for later histological examination. Immunostaining. Pancreatic tissue samples were fixed at 10% buffered formalin, processed a defined paraffin-embedding procedure before embedding in paraffin, sectioning into 4-μm tissue sections, and stained with hematoxylin and eosin by standard methods.

## Cc1cc(C2CCCCC2)n(O)c(=O)c1 [CPX, 6-cyclohexyl-1-hydroxy-4-methylpyridin-2(1H)-one]
ROS; ROS triggered by high glucose (FIG. 12B)
  ROS production: potent inhibitor of ROS
ROS; ROS triggered by iron citrate (FIG. 12B)
  ROS production: potent inhibitor of ROS
p21
  p21 expression in the pancreas: effectively stimulated the expression of p21
p21-deficient mice
  glucose regulation (fasting glucose): responded significantly to CPX in terms of glucose regulation
Pancreatic islets
  islet numbers: increased significantly

Source: US10576151B2, “Ciclopirox for use in modulation of glucose homeostasis” (UNIVERSITY OF SOUTH CAROLINA, priority 2015, dated 2020)
